According to US20060084697A1, “Pi3k antagonists as radiosensitizers” (priority 2002, published 2006):

What was measured:
[1] = tested on: Akt; test: Western immunoblot of radiation-induced Akt phosphorylation in endothelial cells; type: cell-based; conditions: for radiation-induced activation of Akt: irradiated vascular endothelium, summary statement
Method: Broad spectrum RTK inhibitors were tested for their abilities to attenuate radiation-induced phosphorylation of Akt. SU6668, a tyrosine kinase inhibitor of VEGFR, PDGFR, FGFR, and c-Kit, was added to endothelial cells prior to irradiation. Western immunoblots using phospho-specific antibodies to phosphorylated Akt (P-Akt) were prepared.
(§1) The role of RTKs in radiation-induced activation of the Akt signaling pathway was examined by studying a panel of tyrosine kinase inhibitors including PDGF receptor antagonists in primary culture endothelial cells. PDGF receptor antagonists including SU6668, SU11248, and STI571, attenuated radiation-induced phosphorylation of both Akt and Erk. […] Similar efficacy in blocking Erk1/2 phosphorylation in irradiated endothelial cells was found.

[2] = tested on: Akt; test: Western blot of radiation-induced Akt phosphorylation in HUVEC; type: cell-based, human
Text: HUVEC cells were obtained from Clonetics and were maintained in EBM-2 medium supplemented with EGM™-2MV SINGLEQUOTS® (Bio-Whittaker, Inc., Walkersville, Md., United States of America). An Eldorado-8 Cobalt-60 teletherapy unit (Atomic Energy of Canada Limited, Mississauga, Ontario, Canada) was used to irradiate endothelial cell cultures at a dose rate of 0.84 Gy per minute. Delivered doses ranging from 0 to 12 Gy were verified by use of thermoluminescence detectors.
In order to determine if Akt is phosphorylated in response to irradiation, cultured HUVEC cells were serum starved for 4 hours, exposed to irradiation, and the phosphorylation of Akt was examined in cell extracts by Western blotting. Total cellular protein was extracted after radiation treatment as follows. Cells were counted and then washed with iced-cold PBS twice before the addition of lysis buffer (M-PER™ mammalian protein extraction reagent; Pierce Chemical Company, Rockford, Ill., United States of America; or 20 mM Tris, 150 mM NaCl, 1 mM EDTA, 1% Triton X-100, 2.5 mM sodium pyrophosphate, 1 mM phenylmethylsulphonyl fluoride (PMSF), and […] Leupeptin (Roche Molecular Biochemicals, Indianapolis, Ind., United States of America)). Protein concentrations were quantified using the Biorad method (Bradford, 1976). 50 μg protein was loaded into each well of an 8% sodium dodecyl […]-polyacrylamide gel electrophoresis (SDS-PAGE) gel and separated by electrophoresis. The proteins were subsequently transferred onto 0.45 μm nitrocellulose membranes. Membranes were blocked by incubation for 2 hours at room temperature in phosphate buffered saline-Triton (PBST: 0.9% NaCl, 0.3% Triton X-100, pH 7.4) containing 10% nonfat dry milk.
The presence of Akt protein on the membrane was determined as follows. The membranes were incubated with a 1:1000 dilution of rabbit antibody directed against either phosphorylated (Ser473) or non-phosphorylated human Akt overnight at 4° C. Rabbit antibodies were obtained from Cell Signaling Technology, Beverly, Mass., United States of America. The blots were then washed with PBST to remove unbound rabbit antibodies. The washed blots were then incubated for 1 hour at room temperature with a donkey anti-rabbit IgG secondary antibody (Amersham Biosciences, Piscataway, N.J., United States of America) diluted 1:1000 in PBST. The blots were again washed with PBST to remove unbound donkey antibodies. The presences of both phosphorylated and non-phosphorylated human Akt were determined by chemiluminescent detection of donkey anti-rabbit/rabbit anti-human Akt complexes using the ECL™ detection system (Amersham Biosciences) according to the manufacturer's protocol, followed by autoradiography. […]

[3] = tested on: Erk1/2; test: Radiation-induced Erk phosphorylation in endothelial cells; type: cell-based; conditions: for radiation-induced phosphorylation of Erk: primary culture endothelial cells (Example 16)
Method: Phosphorylation of MEK and Erk proteins was also investigated. Erk1/2 was activated following a single 3 Gy dose of irradiation. Erk was phosphorylated within 15 minutes, which resolved within 60 minutes. SU6668 is a broad spectrum inhibitor of split kinase domain RTKs, including Flk-1, Flt-1, PDGFR, fibroblast growth factor receptor (FGFR), and c-Kit (Mendel et al, 2003).
as §1

[4] = tested on: PDGFRβ; test: Phospho-PDGFRβ immunohistochemistry of GL261 tumors; type: in vivo, C57BL6 mice; conditions: administered one hour prior to 3 Gy
Text: To determine to the level of phosphorylation of PDGF receptor, GL261 mouse tumor models were sectioned and stained. A phospho-specific antibody to PDGFRβ Tyr751 (Cell Signaling Technology, Beverly, Mass., United States of America) was used. Tumors produced by injecting GL261 murine glioma cells into the hind limb of C57BL6 mice were stained for phospho-PDGFRβ and visualized using immunohistochemistry. Phospho-PDGFRβ staining was graded as 2+ relative to staining in negative controls.
To determine whether cytotoxic therapy alters PDGFRβ phosphorylation, the tumor was irradiated (3 Gy) and snap frozen following irradiation. […] Positive staining for phosphorylated PDGFR was found in endothelium and tumor stroma.
Western immunoblots were performed to verify radiation induced an increase in phosphorylation of PDGFRβ. Protein extracted from irradiated HUVEC had increased phosphorylation of PDGFRβ.

[5] = tested on: tumor vasculature; test: Intravital tumor vascular window, vascular length density, SU11248; type: in vivo, mice
Method: Growth factors produced by tumors could enhance the viability of tumor vascular endothelium. To determine whether SU11248 enhances radiation-induced destruction of tumor vasculature, SU11248 was administered to mice prior to irradiation with 3 Gy. Tumor vascular linear density was measured by use of intravital tumor vascular window. […] Five mice were treated in each of the treatment groups, and the vascular length density after treatment was quantified. Mean vascular length densities over four days are shown as a bar graph.

[6] = tested on: GL261 hind limb tumors; test: Tumor growth delay, GL261 hind limb tumors, SU11248; type: in vivo, mice; conditions: SU11248 prior to daily 3 Gy fractions, p<0.05
Method: (§2) Destruction of tumor vasculature results in ischemia, which could reduce radiosensitivity of tumors. To determine whether SU11248 enhances tumor growth delay in irradiated tumors, mice bearing LLC and GL261 hind limb tumors were treated with intraperitoneal injection of 40 mg/kg SU11248 or control vehicle 30 minutes prior to each 3 Gy dose of radiation for a total of seven administrations. Both the inhibitor and radiation were discontinued after day 8. Time to doubling of LLC tumor size was 5, 6, 8 and 16 days for vehicle, SU11248, vehicle+21 Gy, and SU11248+21 Gy, respectively.

[7] = tested on: HUVEC cells; test: Clonogenic survival analysis of HUVEC; type: cell-based, human; conditions: HUVEC treated with SU11248 prior to irradiation; p<0.05
Method: The ability of PI3K antagonist to suppress the clonogenic potential of HUVEC cells treated with radiation was assayed by clonogenic survival analysis. The ability of HUVEC cells treated with LY294002 30 minutes prior to irradiation to form colonies was compared to that of HUVEC cells treated with either radiation or LY294002 alone, and also to that of untreated HUVEC cells. […] Briefly, groups of three HUVEC culture plates were treated at each of four radiation dose levels: 2, 4, 6, and 8 Gy, either with or without prior treatment with PI3K antagonists as described in Example 2. After treatment with radiation and/or antagonists, cells were trypsinized, counted by hemocytometer, and subcultured into fresh medium. After 14 days, the cells were fixed with cold methanol and stained with 1% methylene blue. Colonies with greater than 50 cells were counted and the surviving fraction was determined.

[8] = tested on: LLC hind limb tumors; test: Tumor growth delay, LLC hind limb tumors; type: in vivo, mice
Method: as §2

[9] = tested on: HUVECs; test: Apoptotic nuclei in HUVEC, SU11248 and 6 Gy; type: cell-based, human; conditions: 24 hours
Method: To determine whether broad spectrum RTK inhibition enhances the cytotoxic effects of radiation on vascular endothelium, SU11248 was added 30 minutes prior to irradiation. HUVECs were treated with vehicle control, and either 100 nM SU11248 orvehicle combined with 6 Gy. […] Untreated control cells show 2% apoptotic nuclei as compared to 7 and 8% after treatment with SU11248 or radiation, respectively (p>0.1). […] To determine whether enhanced apoptotic response in endothelial cells treated with SU11248 results in reduced clonogenic cell survival, HUVEC were subcultured and colony formation was quantified.

[10] = tested on: tumors; test: Maintenance SU11248 after radiation, tumor growth delay; type: in vivo
Method: Upon the discontinuation of therapy, tumors rapidly regrow. To determine whether maintenance of SU11248 beyond the completion of radiation improved growth delay, this RTK inhibitor was administered twice daily continuously in groups treated with radiation alone or SU11248 and radiation. Beginning after day 8, three groups (drug alone, radiation+vehicle, and combined therapy) were maintained with twice daily intraperitoneal administrations of 20 mg/kg SU11248 for an additional 7 days. Maintenance treatment was discontinued after day 17, and subsequently resumed after four days of drug holiday.

[11] = tested on: tumors; test: Power Doppler tumor blood flow, SU11248 and radiation; type: in vivo; conditions: p<0.053
Text: To determine whether prolonged growth delay correlated with reduction in tumor blood flow, amplitude modulated Power Doppler was used to monitor blood flow. Reduced blood flow in tumors treated with SU11248 and radiation correlated with improved tumor growth delay.

[12] = tested on: tumor endothelium; test: TUNEL and vWF co-staining of tumor sections; type: in vivo
Text: To determine whether SU11248 interacts with radiation through the induction of apoptosis in tumor endothelium, TUNEL staining of tumor sections was utilized. Tumor sections were co-stained for the endothelial marker von Willebrand factor (vWF) and TUNEL.

[13] = tested on: HUVEC cells; test: Apoptotic nuclei in HUVEC, H&E staining; type: cell-based, human; conditions: wortmannin 4 nM or LY294002 2 μM, 24 hours
Method: To determine whether PI3K antagonists enhance the activities of intrinsic cell death mechanisms induced by irradiation, apoptosis in HUVEC cells was studied following PI3K inhibition. HUVEC cells were treated with wortmannin (4 nM) or with LY294002 (2 μM) as described in Example 2. Cells were treated 30 minutes later with 3 Gy of ionizing radiation. Cultures were stained 24 hours later with hematoxylin and eosin (H&E) to reveal apoptotic nuclei. Stained cells were then examined by light microscopy. For each treatment group, four high power fields (40× objective) were examined, and both the number of cells with apoptotic nuclei and the total number of cells were determined. From these numbers, the percentage of apoptotic cells for each group was calculated.

[14] = primary culture endothelial cells (Example 16)
[15] = added to endothelial cells prior to irradiation (Example 15)

O=c1c(-c2ccc(O)cc2)coc2cc(O)cc(O)c12 [Genistein, 4′,5,7-trihydroxyisoflavone]
radiation-induced activation of Akt [1]: attenuates

CCCCCCCCCCCCCC(=O)N[C@H](C)[C@@H](O)c1ccccc1 [MAPP]
Akt phosphorylation in response to 3 Gy irradiation ([2]; antagonists added to HUVEC in culture (Example 18)): did not attenuate

Cc1ccc(NC(=O)c2ccc(CN3CCN(C)CC3)cc2)cc1Nc1nccc(-c2cccnc2)n1 [STI571]
radiation-induced phosphorylation of Akt [1, 14]: attenuated
radiation-induced phosphorylation of Erk [3]: attenuated

Cc1cc(C)c(/C=C2\C(=O)Nc3ccccc32)[nH]1 [SU5416]
radiation-induced phosphorylation of Akt [1, 15]: did not attenuate

Cc1[nH]c(C=C2C(=O)Nc3ccccc32)c(C)c1CCC(=O)O [SU6668, 3-[2,4-dimethyl-5-(2-oxo-1,2-dihydro-indol-3-ylidenemethyl)-1H-pyrrol-3-yl]-propionic acid]
radiation-induced phosphorylation of Akt [1, 15]: blocked
radiation-induced activation of Akt [1]: attenuate
radiation-induced phosphorylation of Akt [1, 14]: attenuated
Erk 1/2 phosphorylation ([3]; added 30 minutes prior to irradiation, 3 Gy, did not entirely eliminate activation): attenuated
radiation-induced phosphorylation of Erk [3]: attenuated

CCN(CC)CCNC(=O)c1c(C)[nH]c(/C=C2\C(=O)Nc3ccc(F)cc32)c1C [SU11248]
radiation-induced activation of Akt [1]: attenuate
radiation-induced phosphorylation of Akt [1, 14]: attenuated
radiation-induced PDGFR phosphorylation [4]: markedly attenuated
radiation-induced phosphorylation of Erk [3]: attenuated
vascular length density, % of that at 0 hour ([5]; SU11248 alone): 84%
vascular length density, % of that at 0 hours ([5]; SU11248 followed by 3 Gy, within 72 hours, p<0.01): 8%
tumor growth delay compared to either agent alone [6]: significant increase
clonogenic survival compared to radiation alone [7]: significant reduction
time to doubling of LLC tumor size ([8]; 40 mg/kg i.p. 30 minutes prior to each 3 Gy dose, 21 Gy total, vehicle+21 Gy 8 days): 16 days
time to doubling of LLC tumor size ([8]; 40 mg/kg i.p., seven administrations, no radiation, vehicle 5 days): 6 days
tumor growth delay compared to either agent alone ([8]; LLC, SU11248 prior to daily 3 Gy fractions, p<0.05): significant increase
endothelial cells with apoptotic nuclei ([9]; 100 nM SU11248 30 minutes prior to 6 Gy): 21%
endothelial cells with apoptotic nuclei ([9]; 100 nM SU11248 alone, untreated 2%): 7%
growth to 4-fold that of day 0 tumors ([10]; maintenance 20 mg/kg i.p. twice daily for 7 days after day 8, p<0.05 in all groups): significantly delays
tumor growth after re-initiation of SU11248 ([10]; re-initiation at day 21 after four days of drug holiday): second phase of tumor growth delay
tumor blood flow compared to radiation alone [11]: approached significant reduction
apoptotic cells in tumor sections ([12]; SU11248 alone): could not be detected
apoptotic cells in tumor sections ([12]; radiation and SU11248, 24 hours following treatment, no apoptotic tumor cells): TUNEL positive endothelial cells

COC[C@H]1OC(=O)c2coc3c2[C@@]1(C)C1=C(C3=O)[C@@H]2CCC(=O)[C@@]2(C)C[C@H]1OC(C)=O [wortmannin, Wortmannin]
total Akt levels ([2]; HUVEC, wortmannin 4 nM or LY294002 2 μM): no effect
apoptotic nuclei, % of cells ([13]; HUVEC pretreated 30 minutes before 3 Gy): 17%
apoptotic cells ([13]; unirradiated HUVEC): 3%
